Paper PMC4373589 (Journal of medicinal chemistry, 2013)

Key:
morphine antinociception = assay: Warm-water tail flick assay, antagonism of morphine antinociception; format: in vivo; conditions: antagonizing morphine (10 mg/kg) antinociception; s.c.; six mice
morphine dependent mice = assay: Opioid withdrawal assay in morphine-pelleted mice; format: in vivo; conditions: morphine-pelleted mice; s.c.

C=CCN1CC[C@]23c4c5ccc(O)c4O[C@H]2C(=O)CC[C@@]3(O)[C@H]1C5 [Naloxone, naloxone, reference compound]
AD50 values (mg/kg (95% CL)) (morphine antinociception): 0.05 (0.03-0.09) mg/kg
Precipitated withdrawal symptoms, overall comparison (morphine dependent mice): even more significant syndrome
